Source: patent US8865887B2, “Method for synthesizing calixarene and/or cyclodextrin copolymers, terpolymers and tetrapolymers, and uses thereof” (priority 2009, dated 2014)
In brackets after ≈: the same amount, converted by molar mass. Read-outs that look alike come from different tables or passages of the source.

Key:
[1] = Procedure: NIM is used to treat extra-articular and articular inflammatory forms. […] Phase solubility study was carried out according to the method described by Higuchi to study the influence of the complexation of different cyclodextrins on the solubility of NIM. Native cyclodextrins, modified cyclodextrins, cyclodextrin copolymers and cyclodextrin tetrapolymers were used. The cyclodextrin tetrapolymer, based on 35% of alpha-cyclodextrin, 35% beta-cyclodextrin and 30% gamma-cyclodextrin, is synthesized by direct melt polycondensation according to the example 1 and the ratio cyclodextrin/citric acid is 1/3.
Phase Solubility Method: Higuchi's Method
Suspensions were shaken at a temperature of 37° C. on a rotary flask shaker for 7 days and supernatants were filtered through polycarbonate membrane (0.45 μm pore size).

[2] = native cyclodextrins; cited from earlier work

Row | Compound | Kc [1] [mM⁻¹] | [Nimésulid] max. [1] [mg/mL] | solubility in water [2] [mg/mL] | [Nimésulid] max. ([1]; 7 days) [mg/mL]
1 | OC[C@H]1O[C@@H]2O[C@H]3[C@H](O)[C@@H](O)[C@@H](O[C@H]4[C@H](O)[C@@H](O)[C@@H](O[C@H]5[C@H](O)[C@@H](O)[C@@H](O[C@H]6[C@H](O)[C@@H](O)[C@@H](O[C@H]7[C@H](O)[C@@H](O)[C@@H](O[C@H]1[C@H](O)[C@H]2O)O[C@@H]7CO)O[C@@H]6CO)O[C@@H]5CO)O[C@@H]4CO)O[C@@H]3CO [alpha-CD, α-cyclodextrin] | 0.045 | 0.07708 | 127 (≈ 131 mM) | 
2 | OC[C@H]1O[C@@H]2O[C@H]3[C@H](O)[C@@H](O)[C@@H](O[C@H]4[C@H](O)[C@@H](O)[C@@H](O[C@H]5[C@H](O)[C@@H](O)[C@@H](O[C@H]6[C@H](O)[C@@H](O)[C@@H](O[C@H]7[C@H](O)[C@@H](O)[C@@H](O[C@H]8[C@H](O)[C@@H](O)[C@@H](O[C@H]9[C@H](O)[C@@H](O)[C@@H](O[C@H]1[C@H](O)[C@H]2O)O[C@@H]9CO)O[C@@H]8CO)O[C@@H]7CO)O[C@@H]6CO)O[C@@H]5CO)O[C@@H]4CO)O[C@@H]3CO [gamma-CD, γ-cyclodextrin] | 0.0646 | 0.1449 | 236 (≈ 182 mM) | 
3 | OC[C@H]1O[C@@H]2O[C@H]3[C@H](O)[C@@H](O)[C@@H](O[C@H]4[C@H](O)[C@@H](O)[C@@H](O[C@H]5[C@H](O)[C@@H](O)[C@@H](O[C@H]6[C@H](O)[C@@H](O)[C@@H](O[C@H]7[C@H](O)[C@@H](O)[C@@H](O[C@H]8[C@H](O)[C@@H](O)[C@@H](O[C@H]1[C@H](O)[C@H]2O)O[C@@H]8CO)O[C@@H]7CO)O[C@@H]6CO)O[C@@H]5CO)O[C@@H]4CO)O[C@@H]3CO [beta-CD, β-cyclodextrin] | 0.473 |  |  | 0.09249
